The record followed here is patent publication US12467035B2, “Method of differentiating mesenchymal stem cells into cardiomyocytes” (CHONNAM NATIONAL UNIVERSITY HOSPITAL, priority 2016, dated 2025).

The test system of experiment [1] is mesenchymal stem cells. Description: qRT-PCR of cardiomyocyte-specific marker genes (GATA4, Nkx2.5, cTnI). Type of experiment: cell-based, human. The following applies: glucose deprivation. As to the method: To determine the degree of differentiation of mesenchymal stem cells into cardiomyocytes by addition of apicidin and lactic acid under glucose deprivation conditions, the expression levels of cardiomyocyte-specific genes were quantitatively analyzed in the cells. More specifically, as in the method of Example 1-2, mesenchymal stem cells were incubated in each of the media for 4 or 20 hours. After incubation, the medium was removed from each sample, followed by washing once with PBS. Then, the mesenchymal stem cells were treated with TRIzol and incubated at room temperature for 10 minutes for cell lysis, and then chloroform was added thereto, followed by centrifugation. A supernatant obtained as a result of centrifugation was recovered, and total RNA was extracted. cDNA was synthesized from the total RNA using a reverse transcriptase (MMLV). Real-time PCR was performed using the synthesized cDNA as a template using a QuantiTect SYBR Green PCR kit to determine the expression levels of cardiomyocyte-specific marker genes (GATA4, Nkx2.5, and cTnI).
Changes in cardiomyocyte-specific gene expression by addition of apicidin or apicidin and lactic acid under glucose deprivation conditions were quantified by RT-PCR according to the method of Example 1-3.
(In general: Quantitative PCR measures a nucleic acid by following its amplification.)

In experiment [2] the test system is mesenchymal stem cells. Put plainly: Immunocytochemistry of cardiomyocyte-specific marker proteins (GATA4, cTnI). It is filed as cell-based, human. The following applies: glucose deprivation, 4 hours, immunofluorescent staining. The protocol:
To confirm the expression of cardiomyocyte-specific marker proteins, immunocytochemistry was performed. First, mesenchymal stem cells were inoculated into a 12-well plate filled with a high glucose DMEM medium and cultured for 1 day. Then, the mesenchymal stem cells were incubated into a glucose-free medium (Veh), a glucose-free medium containing apicidin (AC), or a glucose-free medium containing apicidin and lactic acid (AC/Lac) for 4 hours. After incubation, the cell culture medium was removed from each sample, the mesenchymal stem cells were washed once with PBS, and subsequently the cells were fixed with 3.7% formaldehyde for 15 minutes, followed by treatment with 0.1% Triton X-100 for cell permeabilization. Normal goat serum was added and incubated for 1 hour to reduce background noise. Primary antibodies such as anti-GATA4 antibodies, anti-cTnI antibodies or anti-alpha-sarcomeric actin (a-SA) antibodies were added to the samples, followed by incubation at 4° C. overnight. Then, secondary antibodies labeled with a fluorescent dye (Alexa 488 or Alexa 594) were added, followed by incubation for 1 hour. Nuclei were stained with 4′,6-diamidino-2-phenylindole (DAPI), a fluorescent dye. The samples were mounted on slide glass for observation using a fluorescence microscope. […]

In experiment [3] the test system is human bone marrow-derived mesenchymal stem cells. Description: Cell viability of mesenchymal stem cells under glucose deprivation (microscopy). Type of experiment: cell-based. The following applies: glucose-free medium, 3 μM apicidin (12 mM lactic acid in AC/Lac12). The protocol: To confirm the status changes of mesenchymal stem cells in glucose deprivation conditions, an existing culture medium was replaced with a glucose-free medium, and then cells were observed after a certain period of time. At this time, cells treated with glucose or lactic acid (the case of cells incubated in a glucose-free medium, the case of cells incubated in a glucose-free medium containing lactic acid, the case of cells incubated in a glucose-free medium containing apicidin, or the case of cells incubated in a glucose-free medium containing lactic acid and apicidin) were observed, and the results are shown in FIG. 1.
First, mesenchymal stem cells were cultured in a 6-well plate filled with high glucose DMEM (4 mM L-glutamine, 4500 mg/L glucose, sodium pyruvate, 10% FBS, 100 U/ml penicillin, 100 μg/ml streptomycin) for one day. After culture, the high glucose DMEM was removed, the mesenchymal stem cells were washed twice with a sterile phosphate-saline buffer solution, and a glucose-free medium was added to the mesenchymal stem cells. At this time, the case of cells incubated in a glucose-free medium, the case of cells incubated in a glucose-free medium containing 3 μM apicidin, and the case of cells incubated in a glucose-free medium containing 3 μM apicidin and 12 mM lactic acid are denoted as Veh, AC, and AC/Lac12, respectively. At 4, 7, 20, and 27 hours after incubation, the morphology of the cells was observed under a microscope and images were obtained.
To evaluate the effect of a culture medium on differentiation of mesenchymal stem cells into cardiomyocytes, as described in Example 1-2, mesenchymal stem cells were incubated in a glucose-free medium, in a glucose-free medium containing apicidin, or a glucose-free medium containing apicidin and lactic acid, and cell viability was determined.

For apicidin, in the experiment on mesenchymal stem cells [1] (20 hours after the treatment), the “expression levels of the marker genes (GATA4, Nkx2.5, cTnI)” value is on record as “remarkably increased”. For the same substance, the “intracellular gene expression of three cardiomyocyte-specific markers (GATA4, Nkx2.5, and cTnI)” value with mesenchymal stem cells [1] (incubation 4 or 20 hours) is reported as “significantly increased”. For the same substance, the “expression of GATA4 and cTnI, cardiomyocyte-specific proteins” value in the experiment with mesenchymal stem cells [2] is reported as “increase in the expression”. Further, the values for the cell death entry in experiment [3] (7 hours), in experiment [3] (20 hours) and in experiment [3] (27 hours) were “cell death was not observed”, “partial cell death was observed” and “cell death was significantly observed”, respectively.
